What was measured:
[1] = Plasma pharmacokinetics (HPLC-MS/MS) of crizotinib, PD-0325901 and PD-0315209 in patients; assay type: in vivo, human; conditions: for Decrease in pre-dose concentrations on Days 21 compared to Day -1: Cycle 1 and 2, PD-0325901 8 mg B.D dose only; for Tmax: plasma, po, combination treatment, 4 dose levels, read-out: Time of peak plasma concentrations after oral dosing
Procedure: PK trough samples (pre-dose and 2-h post dose) were obtained on day 21 of cycles 2, 4, 6, 8, 10 and 12. Plasma concentrations were determined using a validated high-performance liquid chromatography mass spectrometry (HPLC-MS/MS) assay following solid-phase extraction of the plasma sample.

[2] = system: pERK1/2 and pMEK1/2 levels in skin biopsies; experiment: Pharmacodynamic markers in paired skin biopsies by Western blotting; assay type: in vivo, human; conditions: in particular at 8 mg B.D PD-0325901
Procedure: All patients consented to a fresh frozen punch skin biopsy during screening and on cycle 1 day 15 (±7 days). PD markers of MEK1/2 inhibition (pMEK1/2 and pERK1/2 levels) in skin biopsies were assessed by Western blotting, previously described [18, 30]. […] Western blot images were developed using the G:BOX Chemi XX6 gel doc system (Syngene, Cambridge, UK). Densitometry on Western blot images was performed using ImageJ software.

[3] = system: patients with advanced solid tumours; experiment: Phase Ia dose-escalation: safety, DLT and MTD of PD-0325901 with crizotinib
Text: (§1) Patients could remain on combination treatment until disease progression or predefined unacceptable toxicity. At each dose level and before escalation to the next level, a safety study board comprising representatives from the study sponsor and collaborating investigators reviewed individual patient safety and DLTs. DLTs were defined as an almost certainly or probable drug-related adverse events to either drug (Supplementary Table S1), during the first cycle of treatment.
(§2) Safety assessments comprised of physical examination including vital signs, weight, ECOG PS assessment, documentation of adverse events (AEs) and concomitant medication, with regular monitoring of haematology and biochemistry. Ophthalmic examinations (including visual acuity, pressure, perimetry, slit lamp examination, fundoscopy, and optical coherence tomography), ECG and Echocardiography/MUGA were performed at baseline and at pre-defined time-points during the trial. […] At this stage, patients were not required to have measurable disease. Anti-tumour activity was assessed by radiological investigations according to revised RECIST, version 1.1, at baseline (within 28 days before day 1 of cycle 1), then every 2 cycles and at the end of treatment.
(§3) Safety and efficacy data were summarised using descriptive statistics. Evaluable patients for toxicity were those patients that received at least one dose of one or both drugs. Evaluable patients for MTD or dose escalation were those patients who completed cycle 1 or withdrew early for experiencing a DLT. Response analyses (i.e., RECIST 1.1) were performed on an intention-to-treat basis, and any patient who received any dose of study treatment was evaluable for response. Progression-free-survival (PFS) was defined as the time between receiving the first dose of study medication (cycle 1, day -7) to disease progression or death from any cause. Overall survival (OS) was defined as the time between cycle 1, day -7 to death from any cause.

[4] = system: patients with advanced solid tumours; conditions: in vivo
Text: as §1, §2, §3

[5] = system: patients with advanced malignancies; conditions: cited from earlier work
pERK1/2 = system: pERK1/2; parameters: method as in PMID 20215549; conditions: doses ≥2 mg PD-0325901 B.D; cited from earlier work
cMET = conditions: cited from earlier work

Structure (SMILES)	Decrease in pre-dose concentrations on Days 21 compared to Day -1 [1]	pMEK1/2 levels in skin biopsies, post- vs pre-treatment [2]	Maximum tolerable dose (MTD) of PD-0325901 in combination with crizotinib ([3]; days 1–21 of 28-day cycle, with crizotinib 200 mg B.D)	Serious adverse events thought to be drug-related [4]	Maximum tolerated dose (MTD), single agent ([5]; continuously, subsequently revised due to late retinal vein occlusion)	Doses resulting in intolerable toxicity, single agent ([5]; irrespective of the schedule)	AUC at day 21 compared to day 1 (first dose), single agent ([5]; multiple B.D dosing)	Suppression of pERK1/2 in melanoma patient samples (pERK1/2)	Plasma concentrations relative to those required to inhibit MEK1/2 activity ([1]; all dose levels)	Tmax ([1]; human)	Number of drug-related adverse events determined to be related to the named drug ([3]; all cohorts, combination treatment)	Patients requiring a dose reduction of the named drug due to DR-AEs ([3]; combination treatment, all cohorts)	Maximum tolerable dose (MTD) of crizotinib in combination with PD-0325901 ([3]; continuously (days 1–28), with PD-0325901 8 mg B.D)	Pre-clinically predicted effective concentration to inhibit c-MET (cMET)	Steady state on multiple dosing ([1]; Cycle 1 Day 21 vs Cycle 1 Day 28)	Median trough plasma concentrations ([1]; all cohorts (data not shown))	Increase in crizotinib Cmax, Cmin and AUC0-10h with B.D dosing (cohorts 2-4) compared with cohort 1 (O.D) ([1]; days 21 and 28, p < 0.05)	Effect of PD-0325901 dose escalation (cohort 2 to cohort 4) on PK parameters of crizotinib ([1]; human, in vivo)
O=C(O)c1ccc(F)c(F)c1Nc1ccc(I)cc1F [PD-0315209]	1.8–2.2 fold	–	–	–	–	–	–	–	–	–	–	–	–	–	–	–	–	–
O=C(NOC[C@H](O)CO)c1ccc(F)c(F)c1Nc1ccc(I)cc1F [PD-0325901]	1.8–2.2 fold	significant accumulation	8 mg B.D	one	15 mg twice daily (B.D)	> 15 mg twice a day (B.D)	slightly higher	≥ 60%	reached levels consistent with those required to inhibit MEK1/2 activity at all dose levels	1.02 to 2.27 h	–	–	–	–	–	–	–	–
C[C@@H](Oc1cc(-c2cnn(C3CCNCC3)c2)cnc1N)c1c(Cl)ccc(F)c1Cl [crizotinib]	–	–	–	–	–	–	–	–	–	2.76 to 5.21 h	124	No patients	200 mg B.D	62 ng/mL	reached steady state by day 21	> 62 ng/mL	1.6–2.6 fold	did not appear to affect
